Source: ChEMBL document CHEMBL1926625, “Identification of benzoxazin-3-one derivatives as novel, potent, and selective nonsteroidal mineralocorticoid receptor antagonists” (J Med Chem, 2011)

molecular target: T1, Mineralocorticoid receptor (Homo sapiens, UniProt P08235); assay: biochemical
T1 sequence (P08235 whole entry): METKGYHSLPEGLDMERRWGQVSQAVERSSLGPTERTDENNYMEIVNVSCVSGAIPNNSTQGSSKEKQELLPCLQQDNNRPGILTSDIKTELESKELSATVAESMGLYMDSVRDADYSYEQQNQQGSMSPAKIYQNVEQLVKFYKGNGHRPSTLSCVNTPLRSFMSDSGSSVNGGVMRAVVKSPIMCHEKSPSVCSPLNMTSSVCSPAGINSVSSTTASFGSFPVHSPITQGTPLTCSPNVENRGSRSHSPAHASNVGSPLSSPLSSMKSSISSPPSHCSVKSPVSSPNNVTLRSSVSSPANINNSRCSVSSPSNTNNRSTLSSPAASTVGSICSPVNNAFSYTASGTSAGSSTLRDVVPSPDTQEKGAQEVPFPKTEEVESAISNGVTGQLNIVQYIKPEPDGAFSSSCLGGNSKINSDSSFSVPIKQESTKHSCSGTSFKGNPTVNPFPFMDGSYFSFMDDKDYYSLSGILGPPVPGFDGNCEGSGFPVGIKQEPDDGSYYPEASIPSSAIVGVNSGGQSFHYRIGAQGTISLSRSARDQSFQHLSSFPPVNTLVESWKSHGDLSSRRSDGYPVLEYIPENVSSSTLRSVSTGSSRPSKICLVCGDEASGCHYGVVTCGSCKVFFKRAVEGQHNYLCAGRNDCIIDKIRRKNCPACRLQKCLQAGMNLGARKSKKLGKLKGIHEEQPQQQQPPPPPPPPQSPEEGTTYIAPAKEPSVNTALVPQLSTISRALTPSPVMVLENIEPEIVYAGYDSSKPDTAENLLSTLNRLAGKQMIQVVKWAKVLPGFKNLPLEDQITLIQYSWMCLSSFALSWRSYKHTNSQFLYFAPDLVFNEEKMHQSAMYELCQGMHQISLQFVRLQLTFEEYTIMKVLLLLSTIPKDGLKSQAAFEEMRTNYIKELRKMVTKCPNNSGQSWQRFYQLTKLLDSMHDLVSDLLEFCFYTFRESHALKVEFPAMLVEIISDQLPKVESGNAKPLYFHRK
Description: Displacement of [3H]aldosterone from cytosolic human MR expressed in HEK293 cells after 16 hrs by scintillation counting

Compound | IC50
O=C1COc2ccc(C3=Nn4cnnc4SC3)cc2N1 | 2000 nM
CCCC1Sc2nncn2N=C1c1ccc2c(c1)NC(=O)CO2 (centres undefined) | 4100 nM
O=C1COc2ccc(C3=Nn4cnnc4SC3Cc3ccccc3)cc2N1 (centres undefined) | 1300 nM
CC1(c2ccccc2)Sc2nncn2N=C1c1ccc2c(c1)NC(=O)CO2 (centres undefined) | > 10000 nM
O=C1COc2ccc(C3=Nn4cnnc4SC3c3ccccc3F)cc2N1 (centres undefined) | 600 nM
O=C1COc2ccc(C3=Nn4cnnc4SC3c3cccc(F)c3)cc2N1 (centres undefined) | 310 nM
O=C1COc2ccc(C3=Nn4ccnc4SC3c3ccccc3)cc2N1 (centres undefined) | 36 nM
O=C1COc2ccc(C3=Nc4ccccc4SC3c3ccccc3)cc2N1 (centres undefined) | 69 nM
Cc1nc(-c2ccc3c(c2)NC(=O)CO3)c(-c2ccccc2)s1 | > 10000 nM
Cc1nc(-c2ccc3c(c2)NC(=O)CO3)c(-c2ccccc2)[nH]1 | > 10000 nM
Cc1cc(-c2ccc3c(c2)NC(=O)CO3)n(-c2ccccc2)n1 | 5300 nM
CCc1cc(-c2ccc3c(c2)NC(=O)CO3)n(-c2ccc(F)cc2)n1 | 960 nM
O=C1COc2ccc(-c3cc(C(F)(F)C(F)(F)F)nn3-c3ccc(F)cc3)cc2N1 | 570 nM
CC(C)c1cc(-c2ccc3c(c2)NC(=O)CO3)n(-c2ccc(F)cc2)n1 | > 10000 nM
N#Cc1cc(-c2ccc3c(c2)NC(=O)CO3)n(-c2ccc(F)cc2)n1 | 920 nM
O=C1COc2ccc(-c3cc(CO)nn3-c3ccc(F)cc3)cc2N1 | 6800 nM
O=C1COc2ccc(-c3c(C(F)(F)F)cnn3-c3ccc(F)cc3)cc2N1 | 2700 nM
O=C1COc2ccc(-c3cc(C(F)(F)F)nn3-c3ccccc3F)cc2N1 | 440 nM
O=C1COc2ccc(-c3cc(C(F)(F)F)nn3-c3cccc(F)c3)cc2N1 | 1100 nM
O=C1COc2ccc(-c3cc(C(F)(F)F)nn3-c3ccccc3Cl)cc2N1 | 430 nM
O=C1COc2ccc(-c3cc(C(F)(F)F)nn3-c3ccc(Cl)cc3)cc2N1 | 320 nM
Cc1ccccc1-n1nc(C(F)(F)F)cc1-c1ccc2c(c1)NC(=O)CO2 | 80 nM
Cc1ccc(-n2nc(C(F)(F)F)cc2-c2ccc3c(c2)NC(=O)CO3)cc1 | 590 nM
CCc1ccccc1-n1nc(C(F)(F)F)cc1-c1ccc2c(c1)NC(=O)CO2 | 700 nM
Cc1cc(F)ccc1-n1nc(C(F)(F)F)cc1-c1cc(F)c2c(c1)NC(=O)CO2 | 76 nM
Cc1cc(F)ccc1-n1nc(C(F)(F)F)cc1-c1cc(Cl)c2c(c1)NC(=O)CO2 | 12 nM
Cc1cc(F)ccc1-n1nc(C(F)(F)F)cc1-c1cc(C)c2c(c1)NC(=O)CO2 | 21 nM

molecular target: T1, Mineralocorticoid receptor; assay: not given

Compound | IC50
Cc1ccccc1-n1nc(C(F)(F)F)cc1-c1ccc2c(c1)NC(=O)CO2 | 150 nM
Cc1cc(F)ccc1-n1nc(C(F)(F)F)cc1-c1cc(F)c2c(c1)NC(=O)CO2 | 85 nM
Cc1cc(F)ccc1-n1nc(C(F)(F)F)cc1-c1cc(Cl)c2c(c1)NC(=O)CO2 | 70 nM
Cc1cc(F)ccc1-n1nc(C(F)(F)F)cc1-c1cc(C)c2c(c1)NC(=O)CO2 | 15 nM

molecular target: T2, Progesterone receptor (Homo sapiens, UniProt P06401); assay: Displacement of [3H]progesterone from PR
T2 sequence (P06401 whole entry): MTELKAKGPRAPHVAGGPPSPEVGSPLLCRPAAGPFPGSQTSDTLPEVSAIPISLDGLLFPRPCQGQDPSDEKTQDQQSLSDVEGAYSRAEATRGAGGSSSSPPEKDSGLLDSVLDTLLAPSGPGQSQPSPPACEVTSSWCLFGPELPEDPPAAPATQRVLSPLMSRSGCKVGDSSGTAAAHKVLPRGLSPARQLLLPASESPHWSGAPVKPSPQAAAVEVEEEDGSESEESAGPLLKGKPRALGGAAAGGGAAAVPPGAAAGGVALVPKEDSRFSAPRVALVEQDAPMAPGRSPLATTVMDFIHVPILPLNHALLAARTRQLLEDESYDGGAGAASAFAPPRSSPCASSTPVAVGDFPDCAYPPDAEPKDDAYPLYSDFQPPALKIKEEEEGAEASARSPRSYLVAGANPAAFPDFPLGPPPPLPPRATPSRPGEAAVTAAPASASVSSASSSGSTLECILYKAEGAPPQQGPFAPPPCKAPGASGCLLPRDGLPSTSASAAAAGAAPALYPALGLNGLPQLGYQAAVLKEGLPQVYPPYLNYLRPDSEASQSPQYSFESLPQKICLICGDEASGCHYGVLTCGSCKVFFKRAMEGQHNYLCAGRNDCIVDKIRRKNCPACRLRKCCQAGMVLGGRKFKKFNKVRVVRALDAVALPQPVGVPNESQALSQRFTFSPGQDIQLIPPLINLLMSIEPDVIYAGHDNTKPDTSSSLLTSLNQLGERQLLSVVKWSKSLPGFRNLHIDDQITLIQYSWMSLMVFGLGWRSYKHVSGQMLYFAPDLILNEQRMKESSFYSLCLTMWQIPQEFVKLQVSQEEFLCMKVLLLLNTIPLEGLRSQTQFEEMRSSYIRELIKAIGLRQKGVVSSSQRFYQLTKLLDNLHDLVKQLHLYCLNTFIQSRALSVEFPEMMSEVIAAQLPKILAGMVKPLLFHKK

Compound | IC50
O=C1COc2ccc(C3=Nn4cnnc4SC3)cc2N1 | 1600 nM
O=C1COc2ccc(C3=Nn4cnnc4SC3c3ccccc3)cc2N1 (centres undefined) | > 10000 nM
O=C1COc2ccc(C3=Nn4cnnc4SC3c3ccccc3F)cc2N1 (centres undefined) | > 10000 nM
O=C1COc2ccc(C3=Nn4cnnc4SC3c3cccc(F)c3)cc2N1 (centres undefined) | > 10000 nM
O=C1COc2ccc(C3=Nn4ccnc4SC3c3ccccc3)cc2N1 (centres undefined) | 350 nM
O=C1COc2ccc(C3=Nc4ccccc4SC3c3ccccc3)cc2N1 (centres undefined) | 1400 nM
Cc1cc(-c2ccc3c(c2)NC(=O)CO3)n(-c2ccccc2)n1 | > 10000 nM
Cc1ccccc1-n1nc(C(F)(F)F)cc1-c1ccc2c(c1)NC(=O)CO2 | 4900 nM
Cc1cc(F)ccc1-n1nc(C(F)(F)F)cc1-c1cc(F)c2c(c1)NC(=O)CO2 | 1800 nM
Cc1cc(F)ccc1-n1nc(C(F)(F)F)cc1-c1cc(Cl)c2c(c1)NC(=O)CO2 | 930 nM
Cc1cc(F)ccc1-n1nc(C(F)(F)F)cc1-c1cc(C)c2c(c1)NC(=O)CO2 | 2400 nM

molecular target: T3, Glucocorticoid receptor (Homo sapiens, UniProt P04150); assay: Displacement of [3H]dexomethasone from GR
T3 sequence (P04150 whole entry): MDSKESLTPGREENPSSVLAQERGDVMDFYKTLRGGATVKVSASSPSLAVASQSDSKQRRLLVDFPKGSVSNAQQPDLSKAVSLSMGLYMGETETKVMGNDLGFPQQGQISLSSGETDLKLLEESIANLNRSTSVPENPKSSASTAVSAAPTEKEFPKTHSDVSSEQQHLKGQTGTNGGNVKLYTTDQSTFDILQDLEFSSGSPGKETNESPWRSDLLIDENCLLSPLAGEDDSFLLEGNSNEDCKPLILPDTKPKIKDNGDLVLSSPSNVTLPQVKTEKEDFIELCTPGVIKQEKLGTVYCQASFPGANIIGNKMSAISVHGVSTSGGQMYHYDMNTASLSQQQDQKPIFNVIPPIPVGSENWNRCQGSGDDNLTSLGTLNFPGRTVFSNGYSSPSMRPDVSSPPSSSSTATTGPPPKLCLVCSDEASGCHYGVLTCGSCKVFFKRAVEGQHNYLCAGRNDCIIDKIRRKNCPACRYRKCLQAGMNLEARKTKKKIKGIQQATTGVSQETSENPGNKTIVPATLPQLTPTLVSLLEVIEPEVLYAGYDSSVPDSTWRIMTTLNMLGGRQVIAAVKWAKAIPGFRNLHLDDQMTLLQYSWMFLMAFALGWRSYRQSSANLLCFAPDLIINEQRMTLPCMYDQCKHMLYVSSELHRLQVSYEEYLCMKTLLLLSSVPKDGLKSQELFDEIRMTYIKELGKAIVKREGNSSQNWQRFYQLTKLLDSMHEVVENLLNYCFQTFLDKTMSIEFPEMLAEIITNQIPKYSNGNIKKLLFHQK

Compound | IC50
O=C1COc2ccc(C3=Nn4cnnc4SC3)cc2N1 | > 10000 nM
O=C1COc2ccc(C3=Nn4cnnc4SC3c3ccccc3)cc2N1 (centres undefined) | 5600 nM
O=C1COc2ccc(C3=Nn4cnnc4SC3c3ccccc3F)cc2N1 (centres undefined) | 5500 nM
O=C1COc2ccc(C3=Nn4cnnc4SC3c3cccc(F)c3)cc2N1 (centres undefined) | > 10000 nM
O=C1COc2ccc(C3=Nn4ccnc4SC3c3ccccc3)cc2N1 (centres undefined) | 3500 nM
O=C1COc2ccc(C3=Nc4ccccc4SC3c3ccccc3)cc2N1 (centres undefined) | 950 nM
Cc1cc(-c2ccc3c(c2)NC(=O)CO3)n(-c2ccccc2)n1 | > 10000 nM
Cc1ccccc1-n1nc(C(F)(F)F)cc1-c1ccc2c(c1)NC(=O)CO2 | 2500 nM
Cc1cc(F)ccc1-n1nc(C(F)(F)F)cc1-c1cc(F)c2c(c1)NC(=O)CO2 | 1700 nM
Cc1cc(F)ccc1-n1nc(C(F)(F)F)cc1-c1cc(Cl)c2c(c1)NC(=O)CO2 | 200 nM
Cc1cc(F)ccc1-n1nc(C(F)(F)F)cc1-c1cc(C)c2c(c1)NC(=O)CO2 | 470 nM

molecular target: T4, Androgen receptor (Homo sapiens, UniProt P10275); assay: Displacement of [3H]testosterone from AR
T4 sequence (P10275 whole entry): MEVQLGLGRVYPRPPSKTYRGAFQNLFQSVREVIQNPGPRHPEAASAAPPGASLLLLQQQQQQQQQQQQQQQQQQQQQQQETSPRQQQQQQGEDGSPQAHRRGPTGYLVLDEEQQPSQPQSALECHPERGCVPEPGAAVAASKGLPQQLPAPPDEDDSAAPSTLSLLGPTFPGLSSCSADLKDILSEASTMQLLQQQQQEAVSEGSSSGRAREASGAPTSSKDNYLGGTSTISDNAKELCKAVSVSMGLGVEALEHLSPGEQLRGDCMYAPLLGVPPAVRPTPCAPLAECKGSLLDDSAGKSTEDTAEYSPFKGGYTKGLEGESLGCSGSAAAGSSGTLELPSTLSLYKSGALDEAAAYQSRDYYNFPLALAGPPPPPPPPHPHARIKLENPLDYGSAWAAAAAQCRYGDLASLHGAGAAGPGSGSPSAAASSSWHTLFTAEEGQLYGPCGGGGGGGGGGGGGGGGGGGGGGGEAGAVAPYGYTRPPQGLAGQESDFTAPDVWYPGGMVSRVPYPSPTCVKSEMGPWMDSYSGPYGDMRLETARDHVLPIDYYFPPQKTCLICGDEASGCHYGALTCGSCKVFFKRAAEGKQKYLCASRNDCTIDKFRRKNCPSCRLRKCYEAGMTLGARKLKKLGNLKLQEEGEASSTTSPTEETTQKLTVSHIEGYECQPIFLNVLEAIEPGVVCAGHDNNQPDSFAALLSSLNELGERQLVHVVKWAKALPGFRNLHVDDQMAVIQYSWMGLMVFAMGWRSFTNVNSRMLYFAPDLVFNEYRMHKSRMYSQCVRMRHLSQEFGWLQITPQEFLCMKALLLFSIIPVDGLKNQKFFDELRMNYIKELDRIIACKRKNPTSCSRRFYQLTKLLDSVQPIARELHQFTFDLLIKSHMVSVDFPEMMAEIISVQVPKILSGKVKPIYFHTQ

Compound | IC50
O=C1COc2ccc(C3=Nn4cnnc4SC3)cc2N1 | > 10000 nM
O=C1COc2ccc(C3=Nn4cnnc4SC3c3ccccc3)cc2N1 (centres undefined) | 3600 nM
O=C1COc2ccc(C3=Nn4cnnc4SC3c3ccccc3F)cc2N1 (centres undefined) | 5900 nM
O=C1COc2ccc(C3=Nn4cnnc4SC3c3cccc(F)c3)cc2N1 (centres undefined) | 4700 nM
O=C1COc2ccc(C3=Nn4ccnc4SC3c3ccccc3)cc2N1 (centres undefined) | 95 nM
O=C1COc2ccc(C3=Nc4ccccc4SC3c3ccccc3)cc2N1 (centres undefined) | 1200 nM
Cc1cc(-c2ccc3c(c2)NC(=O)CO3)n(-c2ccccc2)n1 | > 10000 nM
Cc1ccccc1-n1nc(C(F)(F)F)cc1-c1ccc2c(c1)NC(=O)CO2 | > 10000 nM
Cc1cc(F)ccc1-n1nc(C(F)(F)F)cc1-c1cc(F)c2c(c1)NC(=O)CO2 | > 10000 nM
Cc1cc(F)ccc1-n1nc(C(F)(F)F)cc1-c1cc(Cl)c2c(c1)NC(=O)CO2 | 4500 nM
Cc1cc(F)ccc1-n1nc(C(F)(F)F)cc1-c1cc(C)c2c(c1)NC(=O)CO2 | > 10000 nM
